Test results: ChEMBL document CHEMBL1201862, “PubChem BioAssay data set” (2004)
Active and inactive are the calls of the source.

Legend:
[1] = blockers of HIV-1 ZM109 envelope-driven cell-cell fusion – HeLa effector, CEM target cells, luciferase, cherry-pick, dose response (AID 652058); type: functional, cell-based;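 also: luciferase signal from HIV-1 Env mediated cell-cell fusion of effector and target cells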
[2] = blockers of HIV-1 envelope-mediated cell-cell fusion – cherry-pick, dose response (AID 652057); type: functional, cell-based
[3] = reduction of Shn3 3'UTR-driven luciferase in osteoblasts – cell-based, Clone20 osteoblasts, firefly luciferase, cherry-picked, dose response (AID 624132); type: functional;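 also: firefly luciferase luminescence from reporter carrying the Shn3 3'UTR in osteoblasts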
[4] = HIV-1 AD8 envelope cell-cell fusion blockers – cherry-pick, dose response (AID 652062); type: functional, cell-based;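 also: luciferase signal from cell-cell fusion driven by HIV-1 clade B AD8 Env; potency is for inhibitors of fusion seen as a drop in luminescence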
[5] = off-target signal loss in HeLa-CEM21 co-culture – HeLa F-luc CTL cells, cherry-picked, counter-screen for HIV-1 Env fusion inhibitor project, dose response (AID 652040); type: functional, cell-based;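 also: potency for signal decrease marking cytotoxic or nonspecific inhibition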
[6] = viability loss in Vero cells – cytotoxicity control for Vif-APOBEC3G degradation inhibitor project, dose response (AID 1117358); type: functional; settings: Vero
[7] = target: Cytochrome P450 2C9 (Homo sapiens, UniProt P11712)
Cytochrome P450 2C9, sequence (P11712 whole entry): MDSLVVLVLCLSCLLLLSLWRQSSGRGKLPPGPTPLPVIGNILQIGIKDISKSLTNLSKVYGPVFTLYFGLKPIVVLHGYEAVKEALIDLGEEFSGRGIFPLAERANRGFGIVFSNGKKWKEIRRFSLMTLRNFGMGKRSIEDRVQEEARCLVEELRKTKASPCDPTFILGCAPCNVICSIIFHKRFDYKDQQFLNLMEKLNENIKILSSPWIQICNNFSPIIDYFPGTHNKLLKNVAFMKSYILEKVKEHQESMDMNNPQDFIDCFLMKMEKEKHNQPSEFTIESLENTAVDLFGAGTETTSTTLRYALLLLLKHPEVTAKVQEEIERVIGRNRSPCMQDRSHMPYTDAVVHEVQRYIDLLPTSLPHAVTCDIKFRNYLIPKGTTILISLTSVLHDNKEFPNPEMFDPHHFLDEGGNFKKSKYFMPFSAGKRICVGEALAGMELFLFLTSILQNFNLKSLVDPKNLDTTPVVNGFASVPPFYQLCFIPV

[8] = target: Cytochrome P450 2D6 (Homo sapiens, UniProt P10635);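 also: CYP2D6 member of a cytochrome P450 panel assay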
Cytochrome P450 2D6, sequence (P10635 whole entry): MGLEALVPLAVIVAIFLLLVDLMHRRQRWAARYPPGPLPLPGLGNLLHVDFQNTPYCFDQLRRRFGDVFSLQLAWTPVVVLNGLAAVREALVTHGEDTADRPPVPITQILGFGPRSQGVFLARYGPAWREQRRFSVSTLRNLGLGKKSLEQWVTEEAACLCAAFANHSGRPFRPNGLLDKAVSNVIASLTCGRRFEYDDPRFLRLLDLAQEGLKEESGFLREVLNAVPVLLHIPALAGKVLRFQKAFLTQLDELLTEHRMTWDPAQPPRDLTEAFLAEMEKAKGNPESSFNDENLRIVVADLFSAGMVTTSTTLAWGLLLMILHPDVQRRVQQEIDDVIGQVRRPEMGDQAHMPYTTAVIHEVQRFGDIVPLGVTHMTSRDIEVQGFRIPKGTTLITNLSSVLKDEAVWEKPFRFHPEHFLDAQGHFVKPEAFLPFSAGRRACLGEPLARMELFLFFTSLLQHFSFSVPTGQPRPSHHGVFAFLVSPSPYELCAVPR

[9] = target: T1, Cytochrome P450 1A2 (Homo sapiens, UniProt P05177);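 also: PubChem cytochrome P450 panel assay, CYP1A2 panel member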
T1 sequence (P05177 whole entry): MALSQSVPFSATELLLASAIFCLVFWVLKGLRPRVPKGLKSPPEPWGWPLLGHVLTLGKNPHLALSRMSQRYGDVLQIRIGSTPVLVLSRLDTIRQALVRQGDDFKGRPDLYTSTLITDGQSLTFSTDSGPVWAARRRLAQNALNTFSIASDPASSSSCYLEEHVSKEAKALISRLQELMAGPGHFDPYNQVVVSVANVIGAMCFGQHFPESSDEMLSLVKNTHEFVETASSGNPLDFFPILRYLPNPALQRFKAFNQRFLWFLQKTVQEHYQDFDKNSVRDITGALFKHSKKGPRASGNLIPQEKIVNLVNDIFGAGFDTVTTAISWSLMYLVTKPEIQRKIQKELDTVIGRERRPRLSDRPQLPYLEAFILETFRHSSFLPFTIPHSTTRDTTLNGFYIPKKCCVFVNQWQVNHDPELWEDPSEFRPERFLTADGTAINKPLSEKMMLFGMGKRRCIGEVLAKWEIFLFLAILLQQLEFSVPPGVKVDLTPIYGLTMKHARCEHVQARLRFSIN

[10] = viability loss in CEM21 cells – cell-based, CellTiter-Glo luminescence, cherry-picked, cytotoxicity control for viral fusion inhibitor project, dose response (AID 652042); type: functional;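 also: potency for signal decrease meaning cytotoxicity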
[11] = loss of viability in HepG2 cells – cell-based, CellTiter-Glo, cherry-picked, cytotoxicity control for Shn3 inhibitor project, dose response (AID 624134); type: functional
[12] = non-specific 3'UTR reporter inhibition in Clone20-Shn3RL – cell-based, Renilla luciferase, cherry-picked, counter-screen for Shn3 inhibitor project, dose response (AID 624133); type: functional
[13] = microbe, parasite or virus in culture; type: functional; settings: Mycobacterium tuberculosis
[14] = target: Paired box protein Pax-8 (Homo sapiens, UniProt Q06710); experiment: PAX8 transcriptional activity inhibition in RMG-I – RMG-I cells, luciferase, cherry-pick, dose response (AID 687027); type: functional, cell-based;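 also: luciferase reporter driven by Pax8 target thyroperoxidase promoter measured by SteadyGlo luminescence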
Paired box protein Pax-8, sequence (Q06710 whole entry): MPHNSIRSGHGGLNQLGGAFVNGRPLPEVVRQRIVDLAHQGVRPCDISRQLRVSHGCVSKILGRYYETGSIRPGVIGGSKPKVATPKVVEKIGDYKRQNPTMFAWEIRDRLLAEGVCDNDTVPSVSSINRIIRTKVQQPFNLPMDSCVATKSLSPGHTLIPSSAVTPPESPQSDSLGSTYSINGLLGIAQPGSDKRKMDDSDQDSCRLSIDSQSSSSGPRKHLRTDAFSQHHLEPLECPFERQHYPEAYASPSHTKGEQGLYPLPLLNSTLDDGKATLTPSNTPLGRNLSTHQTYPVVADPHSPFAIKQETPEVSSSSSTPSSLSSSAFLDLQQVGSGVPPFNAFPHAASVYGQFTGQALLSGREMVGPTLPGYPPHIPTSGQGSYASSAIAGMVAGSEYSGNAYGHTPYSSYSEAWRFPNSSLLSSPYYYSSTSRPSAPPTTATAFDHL

[15] = inhibitors acting on PAX2 in cells – cell-based, plate reader, dry powder samples, selectivity assay for PAX8 inhibitor project, dose response (AID 743048); type: functional;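 also: HEK293 cells carrying a WT1 promoter luciferase reporter driven by expressed Pax2; potency is for inhibition of Pax2 driven reporter signal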
[16] = PAX8-dependent cell viability loss – plate reader, dry powder, dose response (AID 743049); type: functional, cell-based
[17] = toxicity toward immortalized ovarian surface epithelium – cell-based, plate reader, dry powder samples, cytotoxicity control for PAX8 inhibitor project, dose response (AID 743045); type: functional
[18] = A2780 cell killing – plate reader, dry powder samples, cytotoxicity control, dose response (AID 743046); type: functional, cell-based
[19] = OV-90 cell viability loss – plate reader, dry powder, SA8, PAX8 inhibitor project, dose response (AID 743149); type: functional, cell-based
[20] = COV434 cell viability loss – plate reader, dry powder, SA7, cytotoxicity control for PAX8 inhibitor project, dose response (AID 743145); type: functional, cell-based
[21] = OVCAR-3 cell viability loss – plate reader, dry powder samples, PAX8 inhibitor project, dose response (AID 743044); type: functional, cell-based
[22] = IGROV1 cell killing – plate reader, dry powder samples, PAX8 inhibitor project, dose response (AID 743043); type: functional, cell-based; settings: IGROV-1
[23] = PAX5 cellular inhibition readout – cell-based, plate reader, dry powder samples, selectivity assay for PAX8 inhibitor project, dose response (AID 743047); type: functional;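 also: HEK293 cells carrying a Pax5 driven CD19 promoter luciferase reporter; potency of inhibitors that lower reporter luminescence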
[24] = target: Neurotensin receptor type 1 (Homo sapiens, UniProt P30989); type: functional;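 also: Image-based confirmatory dose-response assay measuring agonist activity at NTR1; NTR1-expressing U2OS osteosarcoma cells imaged for beta-arrestin GFP spot formation; agonist potency where compounds increase beta-arrestin recruitment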
Neurotensin receptor type 1, sequence (P30989 whole entry): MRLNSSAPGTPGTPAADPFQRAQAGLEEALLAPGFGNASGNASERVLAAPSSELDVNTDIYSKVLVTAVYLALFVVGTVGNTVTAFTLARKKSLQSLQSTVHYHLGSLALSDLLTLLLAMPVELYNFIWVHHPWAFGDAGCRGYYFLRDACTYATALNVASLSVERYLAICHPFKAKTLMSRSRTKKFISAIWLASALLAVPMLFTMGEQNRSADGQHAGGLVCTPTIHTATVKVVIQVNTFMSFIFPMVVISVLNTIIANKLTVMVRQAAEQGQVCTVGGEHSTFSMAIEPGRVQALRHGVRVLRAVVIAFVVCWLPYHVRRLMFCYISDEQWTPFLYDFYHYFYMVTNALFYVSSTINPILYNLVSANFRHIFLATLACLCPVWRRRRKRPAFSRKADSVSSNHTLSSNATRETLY

[25] = system: Vero; experiment: cells; type: functional; settings: Chlorocebus sabaeus
[26] = OVCAR4 cell viability loss – plate reader, dry powder, SA11, cytotoxicity control for PAX8 inhibitor project, dose response (AID 743150); type: functional, cell-based; settings: OVCAR-4
[27] = target: T2, Replicative DNA helicase DnaB (Mycobacterium tuberculosis, UniProt P9WMR3); experiment: DnaB intein splicing inhibitors, dose response, biochemical, cell-free fluorescence (AID 449749); type: functional
T2 sequence (P9WMR3 whole entry): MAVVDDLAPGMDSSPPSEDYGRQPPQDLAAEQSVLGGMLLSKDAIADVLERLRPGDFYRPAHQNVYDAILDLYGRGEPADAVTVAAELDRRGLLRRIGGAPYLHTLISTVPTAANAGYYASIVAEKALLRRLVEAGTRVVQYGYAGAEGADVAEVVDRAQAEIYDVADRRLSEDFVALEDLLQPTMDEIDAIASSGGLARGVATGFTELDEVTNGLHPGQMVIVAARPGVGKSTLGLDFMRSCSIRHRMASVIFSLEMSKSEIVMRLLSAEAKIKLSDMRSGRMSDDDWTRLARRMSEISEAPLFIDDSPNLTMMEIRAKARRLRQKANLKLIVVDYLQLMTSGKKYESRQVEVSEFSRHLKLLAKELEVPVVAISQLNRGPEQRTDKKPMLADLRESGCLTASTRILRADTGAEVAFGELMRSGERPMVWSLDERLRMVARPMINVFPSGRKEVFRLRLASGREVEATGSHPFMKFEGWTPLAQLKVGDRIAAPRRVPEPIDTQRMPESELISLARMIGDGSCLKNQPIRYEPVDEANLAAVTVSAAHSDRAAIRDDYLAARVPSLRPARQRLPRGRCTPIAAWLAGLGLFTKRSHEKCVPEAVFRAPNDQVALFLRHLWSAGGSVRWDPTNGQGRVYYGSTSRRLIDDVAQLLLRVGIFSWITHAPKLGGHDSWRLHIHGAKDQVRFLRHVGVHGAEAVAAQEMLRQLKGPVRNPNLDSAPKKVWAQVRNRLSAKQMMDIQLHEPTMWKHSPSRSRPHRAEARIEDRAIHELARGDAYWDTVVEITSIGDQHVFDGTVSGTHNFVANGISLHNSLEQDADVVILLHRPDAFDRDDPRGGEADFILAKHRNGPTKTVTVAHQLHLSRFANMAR

[28] = COV362 cell viability loss – plate reader, dry powder, SA12, cytotoxicity control for PAX8 inhibitor project, dose response (AID 743144); type: functional, cell-based
[29] = target: T3, Hepatocyte nuclear factor 4-alpha (Homo sapiens, UniProt P41235); type: functional, cell-based;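 also: biochemical luminescence-based dose-response counterscreen measuring inhibition of HNF4 dimerization, run alongside a screen for blockers of ABHD5–perilipin-5 interaction; split luciferase complementation of HNF4 fusion proteins in cell lysate measuring dimerization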
T3 sequence (P41235 whole entry): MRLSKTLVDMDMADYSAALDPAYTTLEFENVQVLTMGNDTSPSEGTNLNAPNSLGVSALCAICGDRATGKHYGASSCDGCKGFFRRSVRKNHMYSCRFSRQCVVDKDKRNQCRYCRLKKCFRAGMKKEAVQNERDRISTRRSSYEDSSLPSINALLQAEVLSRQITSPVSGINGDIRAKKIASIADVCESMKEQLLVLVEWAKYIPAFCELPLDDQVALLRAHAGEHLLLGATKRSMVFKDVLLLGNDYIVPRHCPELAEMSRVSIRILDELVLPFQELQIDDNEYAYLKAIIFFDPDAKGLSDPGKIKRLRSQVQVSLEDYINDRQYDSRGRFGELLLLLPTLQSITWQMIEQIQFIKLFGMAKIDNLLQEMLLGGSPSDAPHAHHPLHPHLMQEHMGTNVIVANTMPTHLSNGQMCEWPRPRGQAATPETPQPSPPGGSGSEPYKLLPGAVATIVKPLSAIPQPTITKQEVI

[30] = system: INS1; experiment: INS-1E survival protection against cytokine death – cell-based, luminescence, retest, dose response (AID 449756); type: functional; settings: Rattus norvegicus;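 also: cell death triggered by IL-1 beta plus TNF-alpha plus IFN-gamma mixture; protective hits raise ATP signal compared with cytokine alone wells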
[31] = target: T4, Protein RecA (Mycobacterium tuberculosis, UniProt P9WHJ3); experiment: Fluorescence Cell-Free Homogeneous Dose Retest to Identify Inhibitors of RecA-Intein Splicing Activity. [Related pubchem assays (depositor defined):AID2097, AID2223, AID489010, AID492950]; type: functional
T4 sequence (P9WHJ3 whole entry): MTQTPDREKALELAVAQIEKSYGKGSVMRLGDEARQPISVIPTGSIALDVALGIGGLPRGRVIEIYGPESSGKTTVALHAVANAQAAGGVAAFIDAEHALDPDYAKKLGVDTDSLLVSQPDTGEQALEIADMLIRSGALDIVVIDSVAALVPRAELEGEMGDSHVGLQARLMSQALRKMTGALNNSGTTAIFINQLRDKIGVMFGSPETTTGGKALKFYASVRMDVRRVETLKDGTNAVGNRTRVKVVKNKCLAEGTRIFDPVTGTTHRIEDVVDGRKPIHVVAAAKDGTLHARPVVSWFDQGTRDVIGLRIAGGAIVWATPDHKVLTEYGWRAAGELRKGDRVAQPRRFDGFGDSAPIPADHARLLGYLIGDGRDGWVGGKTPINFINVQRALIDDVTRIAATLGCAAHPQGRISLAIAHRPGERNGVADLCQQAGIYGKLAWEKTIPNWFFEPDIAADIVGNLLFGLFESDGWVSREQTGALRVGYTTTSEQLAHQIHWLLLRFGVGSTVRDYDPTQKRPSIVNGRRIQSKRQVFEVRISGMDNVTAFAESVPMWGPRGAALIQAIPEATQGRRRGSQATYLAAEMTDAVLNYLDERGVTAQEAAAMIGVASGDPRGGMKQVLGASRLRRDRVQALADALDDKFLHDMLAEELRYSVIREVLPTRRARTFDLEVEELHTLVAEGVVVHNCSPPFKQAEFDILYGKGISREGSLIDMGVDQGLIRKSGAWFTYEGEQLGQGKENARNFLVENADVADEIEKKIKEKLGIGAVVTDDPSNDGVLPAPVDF

[32] = cells
[33] = target: T5, Oxysterols receptor LXR-beta (Homo sapiens, UniProt P55055); experiment: LXR agonists, Gal4 luciferase reporter, dose response, counter-screen for ssDAF-12 agonist project, cell-based, luminescence, HEK293, S. stercoralis campaign (AID 720737); type: functional; settings: read-out: IC50 (the source's name)
T5 sequence (P55055 whole entry): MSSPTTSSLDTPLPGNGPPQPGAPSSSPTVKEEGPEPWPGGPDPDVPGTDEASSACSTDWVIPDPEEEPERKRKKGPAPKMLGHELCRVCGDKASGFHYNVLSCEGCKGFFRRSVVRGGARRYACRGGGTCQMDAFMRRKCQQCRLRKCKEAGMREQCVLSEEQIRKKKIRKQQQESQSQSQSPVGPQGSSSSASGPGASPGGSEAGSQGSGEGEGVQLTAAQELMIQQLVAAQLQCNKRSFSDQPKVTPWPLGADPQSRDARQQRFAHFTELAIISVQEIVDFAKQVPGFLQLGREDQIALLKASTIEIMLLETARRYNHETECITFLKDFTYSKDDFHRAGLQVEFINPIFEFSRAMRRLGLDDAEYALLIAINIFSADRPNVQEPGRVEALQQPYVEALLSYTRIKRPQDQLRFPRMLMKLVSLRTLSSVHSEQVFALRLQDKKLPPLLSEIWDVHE

[34] = Luminescence-based cell-based high throughput dose response assay to identify activators of the DAF-12 from the parasite S. stercoralis (ssDAF-12).; type: functional
[35] = target: T5, Oxysterols receptor LXR-beta; type: functional, cell-based
[36] = viability loss in HepG2 hepatoma cells – cell-based, ATP luminescence, cherry-pick, activator set 2, cytotoxicity control, dose response (AID 1053143); type: functional

Nc1nc(Cl)cc(N2CCC(c3cc(-c4ccc(Cl)cc4Cl)[nH]n3)CC2)n1
AC50 [1]: 0.394 µM (active) | AC50 [2]: 18.5 µM (active) | AC50 [3]: 4.94 µM (active) | AC50 [4]: 16.6 µM (active) | AC50 [5]: > 70 µM (inactive) | CC50 [6]: > 40 µM (active) | AC50 [7]: 22.4 µM (inconclusive) | AC50 [8]: 12.6 µM (inconclusive) | AC50 [9]: 6.31 µM (inconclusive) | AC50 [10]: 36.1 µM (active) | AC50 [11]: 62 µM (active) | AC50 [12]: 5.61 µM (active) | CC50 [13]: > 40 µM (active)

O=C(Nc1ccc(Cl)cc1)/C(=C/c1cccc(O)c1)c1nc2ccccc2s1
AC50 [14]: 3.92 µM (active) | AC50 [3]: 3.53 µM (active) | AC50 [15]: 12.8 µM (active) | AC50 [16]: 4.02 µM (active) | AC50 [17]: 11.5 µM (active) | AC50 [18]: 15.1 µM (active) | AC50 [19]: 4.14 µM (active) | AC50 [20]: 9.35 µM (active) | AC50 [21]: 8.14 µM (active) | AC50 [22]: 30.7 µM (active) | AC50 [23]: 7.08 µM (active) | EC50 [24]: 6.69 µM (active) | AC50 [11]: 9.66 µM (active) | AC50 [12]: 9.54 µM (active) | CC50 [25]: 2.37 µM (active) | AC50 [26]: 13.7 µM (active) | AC50 [27]: > 380 µM (inconclusive) | AC50 [28]: 5.28 µM (active) | IC50 [29]: 4.66 µM (active) | AC50 [30]: 3.7 µM (active) | EC50 [31]: 0.481 µM (active)

Oc1ccccc1-c1cc(-c2ccccc2)[nH]n1
EC50 [32]: > 67.4 µM (inactive) | EC50 [33]: > 67.4 µM (inactive) | IC50 [34]: > 67.4 µM (inactive) | EC50 [35]: > 67.4 µM (inactive) | AC50 [36]: 26 µM (active)

Cc1ccccc1C(=O)N/N=C1/SCC(=O)N1Cc1ccccc1
EC50 [33]: > 67.5 µM (inactive) | IC50 [34]: > 67.5 µM (inactive)

C=CCOc1ccc(Br)cc1/C=N/O
CC50 [6]: 2.72 µM (active)
